Test results reported in PubChem BioAssay (NCI).
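Each compound was tested at five concentrations against cells in 96-well plates for 48 hours. GI50 = concentration required for 50% inhibition of growth. At the TGI there is no net growth.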

What was measured:
Assay in all cases: DTP human tumour cell line panel, 48 h
[1] = tested on: 786-0 renal
[2] = tested on: A498 renal
[3] = tested on: A549 NSCLC
[4] = tested on: ACHN renal
[5] = tested on: BT-549 breast
[6] = tested on: CAKI-1 renal
[7] = tested on: COLO 205 colon
[8] = tested on: DU-145 prostate
[9] = tested on: HCC-2998 colon
[10] = tested on: HCT-116 colon
[11] = tested on: HCT-15 colon
[12] = tested on: HOP-62 NSCLC
[13] = tested on: HS 578T breast
[14] = tested on: K-562 leukemia
[15] = tested on: KM12 colon
[16] = tested on: LOX IMVI melanoma
[17] = tested on: M14 melanoma
[18] = tested on: MCF7 breast
[19] = tested on: MDA-MB-231 breast
[20] = tested on: MDA-MB-435
[21] = tested on: MOLT-4 leukemia
[22] = tested on: NCI-H226 lung
[23] = tested on: NCI-H23 lung
[24] = tested on: NCI-H460 lung
[25] = tested on: NCI/ADR-RES ovarian
[26] = tested on: OVCAR-3 ovarian
[27] = tested on: OVCAR-4 ovarian
[28] = tested on: OVCAR-5 ovarian
[29] = tested on: OVCAR-8 ovarian
[30] = tested on: PC-3 prostate
[31] = tested on: RPMI-8226 leukemia
[32] = tested on: RXF 393 renal
[33] = tested on: SF-268 CNS
[34] = tested on: SF-295 CNS
[35] = tested on: SK-MEL-2 melanoma
[36] = tested on: SK-MEL-28 melanoma
[37] = tested on: SK-OV-3 ovarian
[38] = tested on: SN12C renal
[39] = tested on: SNB-19 CNS
[40] = tested on: SNB-75 CNS
[41] = tested on: SR leukemia
[42] = tested on: SW-620 colon
[43] = tested on: T-47D breast
[44] = tested on: TK-10 renal
[45] = tested on: U251 CNS
[46] = tested on: UACC-257 melanoma
[47] = tested on: UACC-62 melanoma
[48] = tested on: UO-31 renal
[49] = tested on: CCRF-CEM leukemia
[50] = tested on: EKVX NSCLC
[51] = tested on: HL-60(TB) leukemia
[52] = tested on: HOP-92 NSCLC
[53] = tested on: HT29 colon
[54] = tested on: IGROV1 ovarian
[55] = tested on: MALME-3M melanoma
[56] = tested on: NCI-H522 lung
[57] = tested on: SF-539 CNS
[58] = tested on: SK-MEL-5 melanoma

CCOC(=O)[C@H]1C[C@@H](C(=O)c2ccccc2)N2N=C(c3ccc(Br)cc3)C=C[C@H]12
TGI [1]: > 100 µM
TGI [2]: > 100 µM
TGI [3]: > 100 µM
TGI [4]: > 100 µM
TGI [5]: > 100 µM
TGI [6]: > 100 µM
TGI [7]: > 100 µM
TGI [8]: > 100 µM
TGI [9]: > 100 µM
TGI [10]: > 100 µM
TGI [11]: > 100 µM
TGI [12]: > 100 µM
TGI [13]: > 100 µM
TGI [14]: > 100 µM
TGI [15]: > 100 µM
TGI [16]: > 100 µM
TGI [17]: > 100 µM
TGI [18]: > 100 µM
TGI [19]: > 100 µM
TGI [20]: > 100 µM
TGI [21]: > 100 µM
TGI [22]: > 100 µM
TGI [23]: > 100 µM
TGI [24]: > 100 µM
TGI [25]: > 100 µM
TGI [26]: > 100 µM
TGI [27]: > 100 µM
TGI [28]: > 100 µM
TGI [29]: > 100 µM
TGI [30]: > 100 µM
TGI [31]: > 100 µM
TGI [32]: > 100 µM
TGI [33]: > 100 µM
TGI [34]: > 100 µM
TGI [35]: > 100 µM
TGI [36]: > 100 µM
TGI [37]: > 100 µM
TGI [38]: > 100 µM
TGI [39]: > 100 µM
TGI [40]: > 100 µM
TGI [41]: > 100 µM
TGI [42]: > 100 µM
TGI [43]: > 100 µM
TGI [44]: > 100 µM
TGI [45]: > 100 µM
TGI [46]: > 100 µM
TGI [47]: > 100 µM
TGI [48]: > 100 µM

Oc1ccccc1C=Nc1ccc(Oc2ccc(Cl)cc2)c(Cl)c1
TGI [1]: 98.7 µM
TGI [2]: 33.7 µM
TGI [3]: 58.7 µM
TGI [4]: 88.3 µM
TGI [5]: 44.4 µM
TGI [6]: 95.4 µM
TGI [49]: 54.3 µM
TGI [7]: 41.1 µM
TGI [8]: > 100 µM
TGI [50]: 52 µM
TGI [9]: 45.7 µM
TGI [10]: 40.1 µM
TGI [11]: 36.6 µM
TGI [51]: 65.4 µM
TGI [12]: 34.7 µM
TGI [52]: 41.4 µM
TGI [13]: 52.5 µM
TGI [53]: 40.1 µM
TGI [54]: > 100 µM
TGI [15]: 65.1 µM
TGI [16]: 41 µM
TGI [17]: 46 µM
TGI [55]: 44.2 µM
TGI [18]: > 100 µM
TGI [19]: 40.4 µM
TGI [20]: > 100 µM
TGI [21]: > 100 µM
TGI [22]: 93.9 µM
TGI [23]: 45.4 µM
TGI [24]: 54.5 µM
TGI [56]: 31.6 µM
TGI [25]: 47.5 µM
TGI [26]: 38.5 µM
TGI [27]: 66.2 µM
TGI [28]: 79.5 µM
TGI [29]: 57.9 µM
TGI [30]: 53.6 µM
TGI [31]: 81.1 µM
TGI [33]: 43.5 µM
TGI [34]: 48.8 µM
TGI [57]: 58.7 µM
TGI [35]: 32.4 µM
TGI [36]: 72.5 µM
TGI [58]: 50.9 µM
TGI [37]: 71.2 µM
TGI [38]: 41.4 µM
TGI [39]: 49.6 µM
TGI [40]: 58.6 µM
TGI [41]: 69.3 µM
TGI [42]: > 100 µM
TGI [43]: 40.1 µM
TGI [44]: > 100 µM
TGI [45]: 50.5 µM
TGI [46]: > 100 µM
TGI [47]: 49.6 µM
TGI [48]: 24.2 µM

Cc1sc2ncnc(Sc3nc4ccccc4[nH]3)c2c1C
GI50 [1]: 37.3 µM
TGI [1]: > 100 µM
GI50 [2]: 12.2 µM
TGI [2]: 52.9 µM
GI50 [3]: 21.5 µM
TGI [3]: 73 µM
GI50 [4]: 24.4 µM
TGI [4]: > 100 µM
GI50 [5]: 27.2 µM
TGI [5]: > 100 µM
GI50 [6]: 25.4 µM
TGI [6]: > 100 µM
GI50 [49]: 21.1 µM
TGI [49]: > 100 µM
GI50 [7]: 33.5 µM
TGI [7]: > 100 µM
GI50 [8]: 20.8 µM
TGI [8]: 72.4 µM
GI50 [9]: 50.4 µM
TGI [9]: > 100 µM
GI50 [10]: 24 µM
TGI [10]: > 100 µM
GI50 [11]: 28.2 µM
TGI [11]: > 100 µM
GI50 [51]: 22.7 µM
TGI [51]: 59.4 µM
GI50 [12]: 18.7 µM
TGI [12]: 52 µM
GI50 [52]: 13.8 µM
TGI [52]: 63.8 µM
GI50 [13]: 18.4 µM
TGI [13]: 67.6 µM
GI50 [53]: 21.9 µM
TGI [53]: 53.6 µM
GI50 [54]: 33.2 µM
TGI [54]: > 100 µM
GI50 [14]: 23.4 µM
TGI [14]: 97.3 µM
GI50 [15]: 27.2 µM
TGI [15]: > 100 µM
GI50 [16]: 21.2 µM
TGI [16]: > 100 µM
GI50 [17]: 41.1 µM
TGI [17]: > 100 µM
GI50 [55]: 15.6 µM
TGI [55]: 80.1 µM
GI50 [18]: 13.6 µM
TGI [18]: 67 µM
GI50 [19]: 17.4 µM
TGI [19]: 94.3 µM
GI50 [20]: 26.3 µM
TGI [20]: > 100 µM
GI50 [21]: 22.2 µM
TGI [21]: 88.7 µM
GI50 [22]: 27.2 µM
TGI [22]: > 100 µM
GI50 [23]: 30.4 µM
TGI [23]: > 100 µM
GI50 [24]: 27.6 µM
TGI [24]: > 100 µM
GI50 [56]: 21.5 µM
TGI [56]: 61.2 µM
GI50 [25]: 29.5 µM
TGI [25]: > 100 µM
GI50 [26]: 23.3 µM
TGI [26]: 60 µM
GI50 [27]: 20.6 µM
TGI [27]: 66.9 µM
GI50 [28]: 39.7 µM
TGI [28]: > 100 µM
GI50 [29]: 20.7 µM
TGI [29]: 62.7 µM
GI50 [30]: 23.9 µM
TGI [30]: > 100 µM
GI50 [31]: 19.5 µM
TGI [31]: > 100 µM
GI50 [33]: 20.6 µM
TGI [33]: 62.1 µM
GI50 [34]: 55.8 µM
TGI [34]: > 100 µM
GI50 [57]: 38.4 µM
TGI [57]: > 100 µM
GI50 [35]: 33.5 µM
TGI [35]: 99 µM
GI50 [36]: 23.4 µM
TGI [36]: 74.7 µM
GI50 [58]: 22 µM
TGI [58]: > 100 µM
GI50 [37]: 24.3 µM
TGI [37]: 65.6 µM
GI50 [38]: 32.5 µM
TGI [38]: > 100 µM
GI50 [39]: 47 µM
TGI [39]: > 100 µM
GI50 [40]: 1.52 µM
TGI [40]: 27 µM
GI50 [41]: 10.6 µM
TGI [41]: 23 µM
GI50 [42]: 42.3 µM
TGI [42]: > 100 µM
GI50 [43]: 18.1 µM
TGI [43]: 62.9 µM
GI50 [44]: 28.5 µM
TGI [44]: 62.4 µM
GI50 [45]: 18.8 µM
TGI [45]: 43.2 µM
GI50 [46]: 24.7 µM
TGI [46]: 98.9 µM
GI50 [47]: 17.3 µM
TGI [47]: > 100 µM
GI50 [48]: 14.7 µM
TGI [48]: 96.7 µM
